Data as given in patent publication US20250059188A1, “ARYLSULPHONAMIDE COMPOUNDS” (Anaxis Pharma Pty Ltd, priority 2021, published 2025).

How the values were obtained:
[1] = tested on: U937 human histiocytic leukemia cell line; test: Inhibition of TSQ induced necroptosis in U937 cells (CellTitre-Glo); conditions: Homo sapiens, U-937, TSQ cocktail (TNF, Smac mimetic, Q-VD-OPh), 48 hours, read-out: Inhibition of TSQ-induced necroptosis (IC50 cell-based assay)
Experimental: Cellular Assay: Screening Compounds for Inhibition of TSQ Induced Necroptosis, 384 Well Plate Format.
(§1) • Cell Line ID: U937 human histiocytic leukemia cell line. • Cell Concentration (cells/well): Final cell density is 20000 cells per well. • Cell growth medium: HT-RPMI medium+7.4% Fetal Bovine Serum (FBS). Cells are cultured in Corning 150 cm^2 tissue culture flasks with vented caps at 37° C./5% CO2. • Incubation: Plates were incubated at 37° C./5% CO2 in a humidified incubator for 48 hours following addition of compounds and death stimuli (TSQ cocktail). • Compound concentration: 36 μM starting concentration, 1:3 dilution, 10 point • DMSO final concentration (% v/v): 0.3%. Compounds in TSQ Cocktail (T: TNF; S: Smac Mimetic; Q: Q-VD-OPh) and their Final Concentrations: • hTNF-Fc (100 ng/ml)—produced by standard procedures as shown in Bossen et al., J. Biol. Chem., 2006, 281(20), 13964-13971. • Compound A (500 nM) —Smac mimetic, Tetralogic and SYNthesis med chem • Q-VD-OPh (10 μM) —MP Biomedicals
(§2) The cellular assay was carried out according to the following steps: • 1. Each well was prepared by sequential addition of: • a. DMSO (control; columns 1-2 and 23-24) or compound in DMSO—addition was performed using acoustic transfer of nL volumes of stock compound to give final test concentrations of 36, 12, 4, 1.3, 0.44, 0.148, 0.049, 0.016, 0.005 and 0.002 μM. All wells were backfilled with DMSO to a final total volume in the well of 100 nL. • b. Following compound/DMSO addition in step (a), 40 μL of cell suspension (5×10^5 cells/mL) was added to provide a final cell concentration of 20,000 cells per well, and • c. Following cell addition in step (b), 10 μL of 5×TSQ cocktail (except to positive controls; columns 1 and 23) was added to each well. • 2. After 48 hours, plate was removed from the 37° C. incubator and equilibrated to room temperature for 45 minutes. • 3. 15 μL of room temperature CellTitre-Glo2™ (Promega™) was added to each well. • 4. Shook plates for 2 minutes (˜600 rpm) and incubated at room temperature for 15 minutes to allow signal to stabilise. • 5. Read luminescence readout on a plate reader.
Percent viability was calculated for each compound according to equation (2): […]
(§3) 10 point titration curves were fitted with the 4 parameter logistic nonlinear regression model and the IC50 reported reflect the inflection point of the curve for curve fitting.
(§4) • Assay involving the TSQ cocktail (T: TNF; S: Smac mimetic; Q: Q-VD-OPh): TSQ treatment ensures that cells specifically undergo necroptotic cell death. TNF activates the TNF receptor, Smac mimetic directs the signal away from proinflammatory signaling and toward the RIPK1/RIPK3-mediated cell death pathways, and Q-VD-OPh ensures that the apoptotic response is blocked leaving only the programmed necrosis response. The compounds' activity (solution in DMSO) tested in this TSQ-induced assay was evaluated by determining the number of viable cells in culture by measuring the amount of ATP present as measured by CelltiterGlo. • Counter screen: In parallel, all compounds were tested for their ability to affect cell viability. The same U937 cells were treated with compound in DMSO without the TSQ cocktail. This counter screen enabled evaluation of off-target effects. In this case, cell viability was measured by CelltiterGlo.

human RIPK3 = human RIPK3 (Homo sapiens (Human), UniProt Q9Y572); test: KINOMEscan binding assay, human RIPK3; conditions: equilibrium dissociation constant
Experimental: (§5) Binding affinity of the test compounds for human MLKL (full length), mouse MLKL (full length), human RIPK1 and human RIPK3 was determined using the KINOMEscan™ technology developed by DiscoverX (USA; http://www.discoverx.com). The assay was conducted according to manufacturer instructions.
(§6) Kinase assays. For most assays, kinase-tagged T7 phage strains were grown in parallel in 24-well blocks in an E. coli host derived from the BL21 strain. E. coli were grown to log-phase and infected with T7 phage from a frozen stock (multiplicity of infection=0.4) and incubated with shaking at 32° C. until lysis (90-150 minutes). The lysates were centrifuged (6,000×g) and filtered (0.2 μm) to remove cell debris. The remaining kinases were produced in HEK-293 cells and subsequently tagged with DNA for qPCR detection. […] The liganded beads were blocked with excess biotin and washed with blocking buffer (SeaBlock (Pierce), 1% BSA, 0.05% Tween 20, 1 mM DTT) to remove unbound ligand and to reduce non-specific phage binding. […] All reactions were performed in polypropylene 384-well plates in a final volume of 20 μL. […] The kinase concentration in the eluates was measured by qPCR.
(§7) An 11-point 3-fold serial dilution of each test compound was prepared in 100% DMSO at 100× final test concentration and subsequently diluted to 1× in the assay (final DMSO concentration=1%). Most Kos were determined using a compound top concentration=30,000 nM.
(§8) KD for each test compound was calculated with a standard dose-response curve using the Hill equation (equation (1)): […]
(§9) The Hill Slope was set to −1.
(§10) Curves were fitted using a non-linear least square fit with the Levenberg-Marquardt algorithm.

U937 cells = test: Counter screen: U937 cell viability without TSQ cocktail (off-target effect); design: species or system human; conditions: Homo sapiens, U-937, compound without TSQ cocktail, read-out: Off-target effect (IC50 cell-based assay)
Experimental: as §1, §2, §3, §4

human RIPK1 = human RIPK1 (Homo sapiens (Human), UniProt Q13546); test: KINOMEscan binding assay, human RIPK1; conditions: equilibrium dissociation constant
Experimental: as §5, §6, §7, §8, §9, §10

human MLKL (full length) = human MLKL (full length) (Homo sapiens (Human), UniProt Q8NB16); test: KINOMEscan binding assay, human MLKL (full length); conditions: equilibrium dissociation constant
Experimental: as §5, §6, §7, §8, §9, §10

Sequence of human MLKL (full length) (Q8NB16 whole entry): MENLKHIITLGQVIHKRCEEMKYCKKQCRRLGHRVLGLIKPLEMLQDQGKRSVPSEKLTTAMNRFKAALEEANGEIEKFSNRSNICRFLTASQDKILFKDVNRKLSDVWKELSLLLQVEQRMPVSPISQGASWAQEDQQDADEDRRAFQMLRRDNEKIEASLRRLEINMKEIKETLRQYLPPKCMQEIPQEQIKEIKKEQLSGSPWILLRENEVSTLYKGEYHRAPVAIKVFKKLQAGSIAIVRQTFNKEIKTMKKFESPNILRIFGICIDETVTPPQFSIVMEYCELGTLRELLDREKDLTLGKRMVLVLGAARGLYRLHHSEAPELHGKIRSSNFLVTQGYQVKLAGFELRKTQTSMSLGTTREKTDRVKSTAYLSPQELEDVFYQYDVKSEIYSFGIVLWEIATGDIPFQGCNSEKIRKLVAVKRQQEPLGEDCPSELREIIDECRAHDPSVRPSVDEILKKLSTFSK
Sequence of human RIPK1 (Q13546 whole entry): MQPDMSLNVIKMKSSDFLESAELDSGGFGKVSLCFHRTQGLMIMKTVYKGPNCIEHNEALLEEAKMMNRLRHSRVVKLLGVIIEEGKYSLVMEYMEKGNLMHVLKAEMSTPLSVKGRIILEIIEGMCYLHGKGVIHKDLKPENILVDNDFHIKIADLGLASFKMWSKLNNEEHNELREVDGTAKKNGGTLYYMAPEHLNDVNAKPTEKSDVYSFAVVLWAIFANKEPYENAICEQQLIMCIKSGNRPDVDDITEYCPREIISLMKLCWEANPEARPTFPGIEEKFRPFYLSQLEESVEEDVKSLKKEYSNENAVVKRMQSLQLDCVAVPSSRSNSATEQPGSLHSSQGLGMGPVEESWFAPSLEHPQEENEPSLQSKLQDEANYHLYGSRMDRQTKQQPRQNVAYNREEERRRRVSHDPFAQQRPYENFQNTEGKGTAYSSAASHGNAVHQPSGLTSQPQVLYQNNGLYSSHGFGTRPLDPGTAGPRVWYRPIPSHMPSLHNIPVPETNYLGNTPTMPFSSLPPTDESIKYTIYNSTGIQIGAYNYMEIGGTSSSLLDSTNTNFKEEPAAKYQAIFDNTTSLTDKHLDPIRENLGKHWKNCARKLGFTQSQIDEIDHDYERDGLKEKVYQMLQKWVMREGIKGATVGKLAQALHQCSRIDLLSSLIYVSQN
Sequence of human RIPK3 (Q9Y572 whole entry): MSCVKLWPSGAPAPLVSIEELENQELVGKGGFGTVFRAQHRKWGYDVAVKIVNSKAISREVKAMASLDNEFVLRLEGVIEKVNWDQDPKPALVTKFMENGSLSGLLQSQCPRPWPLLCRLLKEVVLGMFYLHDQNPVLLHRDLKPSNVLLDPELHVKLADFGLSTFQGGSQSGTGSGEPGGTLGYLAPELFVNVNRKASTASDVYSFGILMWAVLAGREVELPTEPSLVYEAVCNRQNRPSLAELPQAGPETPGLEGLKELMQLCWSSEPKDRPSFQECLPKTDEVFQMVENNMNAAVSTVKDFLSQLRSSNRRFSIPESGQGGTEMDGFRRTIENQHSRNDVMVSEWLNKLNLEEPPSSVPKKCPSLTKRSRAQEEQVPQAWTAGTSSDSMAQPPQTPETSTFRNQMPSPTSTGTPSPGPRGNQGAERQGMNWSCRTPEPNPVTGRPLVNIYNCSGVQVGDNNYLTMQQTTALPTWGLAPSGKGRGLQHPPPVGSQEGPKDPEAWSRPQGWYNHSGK

SMILES	Kd (human RIPK3) [µM]	Kd (human RIPK1) [µM]	Kd (human MLKL (full length)) [nM]	IC50 [1] [nM]	IC50 (U937 cells) [µM]
Cn1nc(-c2ccc(NS(=O)(=O)C(F)F)c(OCc3ccc(Cl)cn3)c2)c2c(N)ncc(-c3cnn(C4CCOCC4)c3)c21 [Compound 136, N-(4-(4-amino-1-methyl-7-(1-(tetrahydro-2H-pyran-4-yl)-1H-pyrazol-4-yl)-1H-pyrazolo[4,3-c]pyridin-3-yl)-2-((5-chloropyridin-2-yl)methoxy)phenyl)-1,1-difluoromethanesulfonamide]				10 to 1000	> 10
COc1ccc([C@H](C)Oc2cc(-c3nn(C)c4c(-c5cnn(C6CCOCC6)c5)cnc(N)c34)ccc2NS(=O)(=O)C(F)F)cc1 [Compound 129, (S)-N-(4-(4-amino-1-methyl-7-(1-(tetrahydro-2H-pyran-4-yl)-1H-pyrazol-4-yl)-1H-pyrazolo[4,3-c]pyridin-3-yl)-2-(1-(4-methoxyphenyl)ethoxy)phenyl)-1,1-difluoromethanesulfonamide]				10 to 1000	> 10
CCS(=O)(=O)Nc1ccc(-c2cccc3[nH]nc(N)c23)cc1OCc1ccc(F)cc1 [Compound 62, N-(4-(3-Amino-1H-indazol-4-yl)-2-((4-fluorophenyl)methoxy)phenyl)ethane-1-sulfonamide]				1000 to 10000	> 10
Cn1nc(-c2ccc(NS(=O)(=O)C(F)F)c(OCc3ccc(F)cc3)c2)c2c(N)ncc(-c3cnn(CCO)c3)c21 [Compound 12, N-(4-(4-amino-7-(1-(2-hydroxyethyl)-1H-pyrazol-4-yl)-1-methyl-1H-pyrazolo[4,3-c]pyridin-3-yl)-2-((4-fluorobenzyl)oxy)phenyl)-1,1-difluoromethanesulfonamide]				1000 to 10000	> 10
Nc1n[nH]c2ccnc(-c3ccc(NS(=O)(=O)CC(F)(F)F)c(OCc4ccc(F)cc4)c3)c12 [Compound 65, N-(4-(3-amino-1H-pyrazolo[4,3-c]pyridin-4-yl)-2-((4-fluorophenyl)methoxy)phenyl)-2,2,2-trifluoroethane-1-sulfonamide]	> 10	> 10	1 to 100		
Cc1cnccc1-c1cnc(N)c2c(-c3ccc(NS(=O)(=O)C(F)F)c(O[C@@H](C)c4ccc(F)cc4)c3)nn(C)c12 [Compound 32, (S)-N-(4-(4-amino-1-methyl-7-(3-methylpyridin-4-yl)-1H-pyrazolo[4,3-c]pyridin-3-yl)-2-(1-(4-fluorophenyl)ethoxy)phenyl)-1,1-difluoromethanesulfonamide]				1000 to 10000	> 10
C[C@H](Oc1cc(-c2nn(C)c3c(-c4cnn(C5CCC(C(=O)O)CC5)c4)cnc(N)c23)ccc1NS(=O)(=O)C(F)F)c1ccc(F)cc1 (stereo partly drawn) [Compound 173, 4-(4-{4-amino-3-[4-(difluoromethanesulfonamido)-3-[(1S)-1-(4-fluorophenyl)ethoxy]phenyl]-1-methyl-1H-pyrazolo[4,3-c]pyridin-7-yl}-1H-pyrazol-1-yl)cyclohexane-1-carboxylic acid]				1000 to 10000	> 10
Cn1nc(-c2ccc(NS(=O)(=O)C(F)F)c(OCc3nccs3)c2)c2c(N)ncc(-c3cnn(C4CCOCC4)c3)c21 [Compound 143, N-(4-(4-amino-1-methyl-7-(1-(tetrahydro-2H-pyran-4-yl)-1H-pyrazol-4-yl)-1H-pyrazolo[4,3-c]pyridin-3-yl)-2-(thiazol-2-ylmethoxy)phenyl)-1,1-difluoromethanesulfonamide]	> 10	> 10	< 1		
Cn1nc(-c2ccc(NS(=O)(=O)C(F)F)c(OCc3ccc(F)cc3)c2)c2c(N)ncc(-c3ccncc3)c21 [Compound 14, N-(4-(4-amino-1-methyl-7-(pyridin-4-yl)-1H-pyrazolo[4,3-c]pyridin-3-yl)-2-((4-fluorobenzyl)oxy)phenyl)-1,1-difluoromethanesulfonamide]				1000 to 10000	> 10
C[C@H](Oc1cc(-c2nn(C)c3c(-c4cnc(N5CCOCC5)nc4)cnc(N)c23)ccc1NS(=O)(=O)C(F)F)c1ccc(F)cc1 [Compound 110, (S)-N-(4-(4-amino-1-methyl-7-(2-morpholinopyrimidin-5-yl)-1H-pyrazolo[4,3-c]pyridin-3-yl)-2-(1-(4-fluorophenyl)ethoxy)phenyl)-1,1-difluoromethanesulfonamide]	> 10	> 10	< 1		

Second part, led by results:

Kd (human RIPK3) [µM]	Kd (human RIPK1) [µM]	Kd (human MLKL (full length)) [nM]	SMILES	IC50 [1] [nM]	IC50 (U937 cells) [µM]
> 10	> 10		CCS(=O)(=O)Nc1ccc(-c2nn(C)c3c(-c4cccnc4)cnc(N)c23)cc1OCc1ccc(F)cc1 [Compound 1, N-(4-(4-amino-1-methyl-7-(pyridin-3-yl)-1H-pyrazolo[4,3-c]pyridin-3-yl)-2-((4-fluorobenzyl)oxy)phenyl)ethanesulfonamide]	1000 to 10000	> 10
> 10	> 10	< 1	CC(C)Oc1cc(-c2nn(C)c3c(-c4cnn(C5CCOCC5)c4)cnc(N)c23)ccc1NS(=O)(=O)C(F)F [Compound 144, N-(4-(4-amino-1-methyl-7-(1-(tetrahydro-2H-pyran-4-yl)-1H-pyrazol-4-yl)-1H-pyrazolo[4,3-c]pyridin-3-yl)-2-isopropoxyphenyl)-1,1-difluoromethanesulfonamide]		
> 10	> 10	100 to 10000	CCS(=O)(=O)Nc1ccc(-c2ncn3ccnc(N)c23)cc1OCc1ccc(F)cc1 [Compound 63, N-(4-(8-Aminoimidazo[1,5-a]pyrazin-1-yl)-2-((4-fluorophenyl)methoxy)phenyl) ethane-1-sulfonamide]		
> 10	> 10	1 to 100	Cn1nc(-c2ccc(NS(=O)(=O)C(F)F)c(OCc3ccc(F)cc3)c2)c2c(N)nccc21 [Compound 10, N-(4-{4-amino-1-methyl-1H-pyrazolo[4,3-c]pyridin-3-yl}-2-[(4-fluorophenyl)methoxy]phenyl)-1,1-difluoromethanesulfonamide]		
> 10	> 10	100 to 10000	C[C@H](Oc1cc(-c2nn(C)c3c(-c4cnn5c4CN(C)CC5)cnc(N)c23)ccc1NS(=O)(=O)C(F)F)c1ccc(F)cc1 [Compound 91, (S)—N-(4-(4-amino-1-methyl-7-(5-methyl-4,5,6,7-tetrahydropyrazolo[1,5-a]pyrazin-3-yl)-1H-pyrazolo[4,3-c]pyridin-3-yl)-2-(1-(4-fluorophenyl)ethoxy)phenyl)-1,1-difluoromethanesulfonamide]		
